Test results as given in patent publication US20230365546A1, “5-SUBSTITUTED INDOLE 3-AMIDE DERIVATIVES, PREPARATION METHOD AND USE THEREOF” (ORIGIANT PHARMACEUTICAL CO., LTD, priority 2020, published 2023).

Key:
Experiment in all cases: Kinase Profiler 10 μM panel
CK2(h) = CK2(h) (Homo sapiens (Human), UniProt P68400)
Description: (§1) In vitro kinase assays were conducted using Kinase Profiler services provided by Eurofins. The experimental method was as follows: the small molecule compound to be tested (0.001-10 μM), the protein kinase to be tested were incubated with a buffer containing substrate, 10 mM magnesium acetate, and [γ-^33P-ATP], the reaction was started by adding Mg\TPmix, after incubation for a period of time at room temperature, a 3% phosphate solution was added to the buffer to stop the reaction. Subsequently, 10 μL of the reaction mixture was quantitatively pipetted onto P30 filter paper, which was washed three times with 75 mM phosphate solution and then once with methanol. The P30 filter paper was air-dried and scintillation fluid was added for scintillation counting.

Itk(h) = Itk(h) (Homo sapiens (Human), UniProt Q08881)
Description: as §1

STK16(h) = STK16(h) (Homo sapiens (Human), UniProt O75716)
Description: as §1

MAPK2(m) = MAPK2(m) (Mus musculus (Mouse), UniProt P63085)
Description: as §1

SAPK3(h) = SAPK3(h) (Homo sapiens (Human), UniProt P53778)
Description: as §1

CDK6/cyclinD3(h) = CDK6/cyclinD3(h) (Homo sapiens (Human), UniProt Q00534)
Description: as §1

MRCKα(h) = MRCKα(h) (Homo sapiens (Human), UniProt Q5VT25)
Description: as §1

NEK3(h) = NEK3(h) (Homo sapiens (Human), UniProt P51956)
Description: as §1

IRE1(h) = IRE1(h) (Homo sapiens (Human), UniProt O75460)
Description: as §1

PRKG2(h) = PRKG2(h) (Homo sapiens (Human), UniProt Q13237)
Description: as §1

MARK1(h) = MARK1(h) (Homo sapiens (Human), UniProt Q9P0L2)
Description: as §1

Flt3(h) = Flt3(h) (Homo sapiens (Human), UniProt P36888)
Description: as §1

Arg(m) = Arg(m) (Mus musculus (Mouse), UniProt Q4JIM5)
Description: as §1

PDGFRα(h) = PDGFRα(h) (Homo sapiens (Human), UniProt P16234)
Description: as §1

Src(T341M)(h) = Src(T341M)(h) (Homo sapiens (Human), UniProt P12931, T341M)
Description: as §1

CK2α2(h) = CK2α2(h) (Homo sapiens (Human), UniProt P19784)
Description: as §1

CK1γ3(h) = CK1γ3(h) (Homo sapiens (Human), UniProt Q9Y6M4)
Description: as §1

Flt1(h) = Flt1(h) (Homo sapiens (Human), UniProt P17948)
Description: as §1

Met(Y1248D)(h) = Met(Y1248D)(h) (Homo sapiens (Human), UniProt P08581, Y1230D)
Description: as §1

Syk(h) = Syk(h) (Homo sapiens (Human), UniProt P43405)
Description: as §1

Tie2(R849W)(h) = Tie2(R849W)(h) (Homo sapiens (Human), UniProt Q02763, R849W)
Description: as §1

CDK5/p25(h) = CDK5/p25(h) (Homo sapiens (Human), UniProt Q00535)
Description: as §1

[1] = target: PI3 Kinase (p110b/p85b)(m) (Mus musculus (Mouse), UniProt Q8BTI9)
Description: as §1

MELK(h) = MELK(h) (Homo sapiens (Human), UniProt Q14680)
Description: as §1

Mnk2(h) = Mnk2(h) (Homo sapiens (Human), UniProt Q9HBH9)
Description: as §1

Rsk4(h) = Rsk4(h) (Homo sapiens (Human), UniProt Q9UK32)
Description: as §1

CK1γ2(h) = CK1γ2(h) (Homo sapiens (Human), UniProt P78368)
Description: as §1

CDKL1(h) = CDKL1(h) (Homo sapiens (Human), UniProt Q00532)
Description: as §1

RIPK1(h) = RIPK1(h) (Homo sapiens (Human), UniProt Q13546)
Description: as §1

STK25(h) = STK25(h) (Homo sapiens (Human), UniProt O00506)
Description: as §1

IRR(h) = IRR(h) (Homo sapiens (Human), UniProt P14616)
Description: as §1

MEKK3(h) = MEKK3(h) (Homo sapiens (Human), UniProt Q99759)
Description: as §1

STK32C(h) = STK32C(h) (Homo sapiens (Human), UniProt Q86UX6)
Description: as §1

MAP4K5(h) = MAP4K5(h) (Homo sapiens (Human), UniProt Q9Y4K4)
Description: as §1

CK1γ3(h), sequence (Q9Y6M4 whole entry): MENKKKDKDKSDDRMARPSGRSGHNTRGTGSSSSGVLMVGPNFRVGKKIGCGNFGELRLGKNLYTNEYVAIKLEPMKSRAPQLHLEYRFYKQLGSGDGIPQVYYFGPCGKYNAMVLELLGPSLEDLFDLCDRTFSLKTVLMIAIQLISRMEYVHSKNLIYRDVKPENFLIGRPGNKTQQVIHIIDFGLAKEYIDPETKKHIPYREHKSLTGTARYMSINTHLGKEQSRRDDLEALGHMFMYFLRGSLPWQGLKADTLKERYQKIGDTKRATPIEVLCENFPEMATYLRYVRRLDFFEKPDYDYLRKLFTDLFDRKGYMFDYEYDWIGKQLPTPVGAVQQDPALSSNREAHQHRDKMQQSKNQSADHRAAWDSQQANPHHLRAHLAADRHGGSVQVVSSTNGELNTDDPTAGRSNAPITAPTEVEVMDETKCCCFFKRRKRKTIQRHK
Src(T341M)(h), sequence (P12931 whole entry T341M, looked up): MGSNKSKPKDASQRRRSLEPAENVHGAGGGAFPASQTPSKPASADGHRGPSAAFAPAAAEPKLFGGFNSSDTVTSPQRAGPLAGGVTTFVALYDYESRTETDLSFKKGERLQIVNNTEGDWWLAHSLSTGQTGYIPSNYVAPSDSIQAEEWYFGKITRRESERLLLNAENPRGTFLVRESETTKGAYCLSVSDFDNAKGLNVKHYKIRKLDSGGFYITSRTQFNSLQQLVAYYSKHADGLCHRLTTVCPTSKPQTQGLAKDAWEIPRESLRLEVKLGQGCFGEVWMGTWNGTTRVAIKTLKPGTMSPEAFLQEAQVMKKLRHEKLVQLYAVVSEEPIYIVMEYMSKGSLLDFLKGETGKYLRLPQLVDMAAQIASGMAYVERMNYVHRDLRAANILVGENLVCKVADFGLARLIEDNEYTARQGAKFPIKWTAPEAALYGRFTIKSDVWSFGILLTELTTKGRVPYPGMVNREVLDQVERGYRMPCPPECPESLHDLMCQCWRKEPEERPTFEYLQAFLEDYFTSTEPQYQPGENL
Itk(h), sequence (Q08881 whole entry): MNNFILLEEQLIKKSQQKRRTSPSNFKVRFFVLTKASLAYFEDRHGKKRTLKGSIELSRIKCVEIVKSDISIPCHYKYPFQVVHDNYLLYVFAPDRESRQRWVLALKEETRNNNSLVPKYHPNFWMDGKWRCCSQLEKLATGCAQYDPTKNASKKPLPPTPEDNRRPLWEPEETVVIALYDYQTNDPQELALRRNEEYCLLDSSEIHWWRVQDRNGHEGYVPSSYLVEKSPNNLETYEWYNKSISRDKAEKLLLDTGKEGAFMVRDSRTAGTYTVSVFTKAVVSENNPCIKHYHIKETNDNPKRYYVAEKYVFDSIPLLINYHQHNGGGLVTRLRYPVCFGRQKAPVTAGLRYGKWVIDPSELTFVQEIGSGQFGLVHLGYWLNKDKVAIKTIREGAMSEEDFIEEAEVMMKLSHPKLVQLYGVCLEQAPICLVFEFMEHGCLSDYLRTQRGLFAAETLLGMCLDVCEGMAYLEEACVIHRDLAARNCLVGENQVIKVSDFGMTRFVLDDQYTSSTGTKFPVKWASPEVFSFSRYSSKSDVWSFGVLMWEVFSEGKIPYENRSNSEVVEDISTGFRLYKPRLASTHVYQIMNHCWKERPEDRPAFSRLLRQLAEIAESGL
CK2(h), sequence (P68400 whole entry): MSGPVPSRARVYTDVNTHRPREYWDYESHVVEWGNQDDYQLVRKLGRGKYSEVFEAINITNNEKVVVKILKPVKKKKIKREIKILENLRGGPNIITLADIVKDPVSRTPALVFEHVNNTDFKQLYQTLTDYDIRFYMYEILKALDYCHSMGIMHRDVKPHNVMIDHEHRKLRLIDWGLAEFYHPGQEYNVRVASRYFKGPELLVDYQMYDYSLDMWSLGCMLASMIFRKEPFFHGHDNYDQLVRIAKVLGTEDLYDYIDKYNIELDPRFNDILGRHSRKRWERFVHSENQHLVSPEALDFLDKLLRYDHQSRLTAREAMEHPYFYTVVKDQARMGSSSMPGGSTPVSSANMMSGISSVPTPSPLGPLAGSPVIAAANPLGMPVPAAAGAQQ
CK2(h), sequence (P67870 whole entry partner): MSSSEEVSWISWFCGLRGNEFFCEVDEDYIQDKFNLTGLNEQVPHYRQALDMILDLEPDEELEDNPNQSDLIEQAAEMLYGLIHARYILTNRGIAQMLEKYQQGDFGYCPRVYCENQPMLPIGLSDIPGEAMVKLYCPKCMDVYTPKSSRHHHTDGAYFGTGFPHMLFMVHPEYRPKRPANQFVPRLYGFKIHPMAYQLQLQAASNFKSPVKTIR
CDK6/cyclinD3(h), sequence (Q00534 whole entry): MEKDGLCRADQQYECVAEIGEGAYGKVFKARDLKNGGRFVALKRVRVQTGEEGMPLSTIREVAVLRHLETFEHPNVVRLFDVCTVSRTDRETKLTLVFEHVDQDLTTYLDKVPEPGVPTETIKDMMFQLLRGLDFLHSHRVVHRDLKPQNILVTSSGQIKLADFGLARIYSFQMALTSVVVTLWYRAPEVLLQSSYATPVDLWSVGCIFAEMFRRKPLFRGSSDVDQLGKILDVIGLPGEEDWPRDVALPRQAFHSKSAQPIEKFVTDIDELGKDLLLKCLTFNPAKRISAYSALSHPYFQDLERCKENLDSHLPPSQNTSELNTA
CDK6/cyclinD3(h), sequence (P30281 whole entry partner): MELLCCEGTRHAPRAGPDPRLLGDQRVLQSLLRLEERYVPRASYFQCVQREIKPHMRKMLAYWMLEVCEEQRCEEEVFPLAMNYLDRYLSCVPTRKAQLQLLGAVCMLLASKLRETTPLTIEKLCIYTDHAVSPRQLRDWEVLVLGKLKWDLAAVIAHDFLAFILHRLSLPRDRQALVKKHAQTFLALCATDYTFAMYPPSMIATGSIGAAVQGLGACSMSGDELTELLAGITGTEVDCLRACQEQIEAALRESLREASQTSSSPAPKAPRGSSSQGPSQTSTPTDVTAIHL
CDK5/p25(h), sequence (Q00535 whole entry): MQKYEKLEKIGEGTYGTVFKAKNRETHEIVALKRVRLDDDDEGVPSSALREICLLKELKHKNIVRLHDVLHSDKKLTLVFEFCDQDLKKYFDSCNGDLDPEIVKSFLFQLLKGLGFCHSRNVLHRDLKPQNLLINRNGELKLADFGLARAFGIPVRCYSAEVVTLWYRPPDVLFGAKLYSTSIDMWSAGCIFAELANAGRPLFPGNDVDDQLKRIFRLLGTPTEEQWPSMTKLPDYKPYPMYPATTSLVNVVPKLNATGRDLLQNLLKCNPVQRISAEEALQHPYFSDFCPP
CDK5/p25(h), sequence (Q15078 99-307 partner): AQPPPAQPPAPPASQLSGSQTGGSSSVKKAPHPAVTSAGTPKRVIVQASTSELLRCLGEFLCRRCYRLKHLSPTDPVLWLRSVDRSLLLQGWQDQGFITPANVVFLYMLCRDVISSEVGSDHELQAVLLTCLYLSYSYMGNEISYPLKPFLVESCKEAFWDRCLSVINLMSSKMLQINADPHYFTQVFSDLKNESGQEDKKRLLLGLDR
Flt3(h), sequence (P36888 27-993): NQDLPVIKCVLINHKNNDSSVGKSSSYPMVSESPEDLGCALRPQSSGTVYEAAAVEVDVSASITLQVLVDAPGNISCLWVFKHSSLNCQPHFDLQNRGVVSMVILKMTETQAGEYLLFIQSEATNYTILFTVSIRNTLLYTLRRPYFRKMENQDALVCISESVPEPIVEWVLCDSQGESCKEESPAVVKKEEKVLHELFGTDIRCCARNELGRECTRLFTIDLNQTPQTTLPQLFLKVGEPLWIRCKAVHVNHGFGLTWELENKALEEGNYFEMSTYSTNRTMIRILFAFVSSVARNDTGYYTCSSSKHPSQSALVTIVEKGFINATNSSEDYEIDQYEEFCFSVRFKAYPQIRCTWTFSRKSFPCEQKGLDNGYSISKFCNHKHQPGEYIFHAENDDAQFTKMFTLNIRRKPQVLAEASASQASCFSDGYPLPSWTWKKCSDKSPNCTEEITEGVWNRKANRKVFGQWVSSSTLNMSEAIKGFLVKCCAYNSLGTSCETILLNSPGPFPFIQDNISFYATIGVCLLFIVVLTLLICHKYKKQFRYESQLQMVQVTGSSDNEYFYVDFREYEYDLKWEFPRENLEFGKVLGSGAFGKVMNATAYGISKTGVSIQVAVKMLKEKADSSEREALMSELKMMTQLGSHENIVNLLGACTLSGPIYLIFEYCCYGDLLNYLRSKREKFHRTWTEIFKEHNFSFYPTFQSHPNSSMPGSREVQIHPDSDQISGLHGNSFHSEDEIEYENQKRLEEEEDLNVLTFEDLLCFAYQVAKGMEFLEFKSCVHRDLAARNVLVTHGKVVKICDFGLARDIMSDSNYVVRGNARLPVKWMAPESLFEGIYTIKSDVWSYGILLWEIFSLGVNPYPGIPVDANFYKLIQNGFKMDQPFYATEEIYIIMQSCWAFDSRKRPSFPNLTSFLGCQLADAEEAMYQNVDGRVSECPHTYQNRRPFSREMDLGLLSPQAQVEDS
Met(Y1248D)(h), sequence (P08581 956-1390 Y1230D limits assumed): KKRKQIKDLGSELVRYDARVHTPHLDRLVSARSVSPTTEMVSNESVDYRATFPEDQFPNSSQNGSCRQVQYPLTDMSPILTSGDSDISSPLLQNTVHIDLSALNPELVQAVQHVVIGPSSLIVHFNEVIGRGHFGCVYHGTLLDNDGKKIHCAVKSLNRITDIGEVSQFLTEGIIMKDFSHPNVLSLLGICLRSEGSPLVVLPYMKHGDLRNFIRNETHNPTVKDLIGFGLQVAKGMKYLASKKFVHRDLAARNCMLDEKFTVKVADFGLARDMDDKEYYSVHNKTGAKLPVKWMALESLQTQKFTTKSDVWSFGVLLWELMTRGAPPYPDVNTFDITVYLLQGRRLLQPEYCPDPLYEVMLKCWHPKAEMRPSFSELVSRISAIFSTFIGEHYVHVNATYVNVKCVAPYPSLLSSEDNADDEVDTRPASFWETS

`C[C@H](NC(=O)c1cn(C)c2ccc(-c3ccn4nc(NC(=O)C5CC5)nc4c3)cc12)c1cccc(F)c1` [Compound 94, (S)-5-(2-(cyclopropanecarboxamido)-[1,2,4]triazolo[1,5-a]pyridin-7-yl)-N-(1-(3-fluorophenyl)ethyl)-1-methyl-1H-indole-3-carboxamide] gave an Inhibition ratio/% (CK2(h)) of 44%, an Inhibition ratio/% (Itk(h)) of 92% and an Inhibition ratio/% (STK16(h)) of 20%. It also gave an Inhibition ratio/% (MAPK2(m)) of 33%, an Inhibition ratio/% (SAPK3(h)) of 46% and an Inhibition ratio/% (CDK6/cyclinD3(h)) of 80%. For the same compound, the Inhibition ratio/% (MRCKα(h)) was −19%, the Inhibition ratio/% (NEK3(h)) was 14% and the Inhibition ratio/% (IRE1(h)) was 22%. It also gave an Inhibition ratio/% (PRKG2(h)) of −9%, an Inhibition ratio/% (MARK1(h)) of −13% and an Inhibition ratio/% (Flt3(h)) of 27%. For the same compound, the Inhibition ratio/% (Arg(m)) was 11%, the Inhibition ratio/% (PDGFRα(h)) was 51% and the Inhibition ratio/% (Src(T341M)(h)) was −6%. It also gave an Inhibition ratio/% (CK2α2(h)) of 25%, an Inhibition ratio/% (CK1γ3(h)) of −10% and an Inhibition ratio/% (Flt1(h)) of 42%. It also gave an Inhibition ratio/% (Met(Y1248D)(h)) of 13%, an Inhibition ratio/% (Syk(h)) of 69% and an Inhibition ratio/% (Tie2(R849W)(h)) of 16%. The Inhibition ratio/% (CDK5/p25(h)) was 46%, the Inhibition ratio/% [1] was 44% and the Inhibition ratio/% (MELK(h)) was 1%. It also gave an Inhibition ratio/% (Mnk2(h)) of 51%, an Inhibition ratio/% (Rsk4(h)) of 3% and an Inhibition ratio/% (CK1γ2(h)) of 50%. For the same compound, the Inhibition ratio/% (CDKL1(h)) was 35%, the Inhibition ratio/% (RIPK1(h)) was 100% and the Inhibition ratio/% (STK25(h)) was 26%. For the same compound, the Inhibition ratio/% (IRR(h)) was 33%, the Inhibition ratio/% (MEKK3(h)) was 14% and the Inhibition ratio/% (STK32C(h)) was 22%. It also gave an Inhibition ratio/% (MAP4K5(h)) of 6%.

Compound `C[C@H](NC(=O)c1c[nH]c2ccc(-c3ccc4nc(NC(=O)C5CC5)sc4c3)cc12)c1cccc(F)c1` [Compound 34, (S)-5-(2-(cyclopropanecarboxamido)benzo[d]thiazol-6-yl)-N-(1-(3-fluorophenyl)ethyl)-1H-indole-3-carboxamide] has an Inhibition ratio (CK2(h)) of −9%, an Inhibition ratio (Itk(h)) of 99% and an Inhibition ratio (STK16(h)) of 17%. For the same compound, the Inhibition ratio (MAPK2(m)) was 12%, the Inhibition ratio (SAPK3(h)) was 84% and the Inhibition ratio (CDK6/cyclinD3(h)) was 6%. It also gave an Inhibition ratio (MRCKα(h)) of 12%, an Inhibition ratio (NEK3(h)) of 10% and an Inhibition ratio (IRE1(h)) of 16%. For the same compound, the Inhibition ratio (PRKG2(h)) was 3%, the Inhibition ratio (MARK1(h)) was 6% and the Inhibition ratio (Flt3(h)) was 79%. It also gave an Inhibition ratio (Arg(m)) of 87%, an Inhibition ratio (PDGFRα(h)) of 32% and an Inhibition ratio (Src(T341M)(h)) of 36%. It also gave an Inhibition ratio (CK2α2(h)) of 23%, an Inhibition ratio (CK1γ3(h)) of −15% and an Inhibition ratio (Flt1(h)) of 100%. The Inhibition ratio (Met(Y1248D)(h)) was 99%, the Inhibition ratio (Syk(h)) was 98% and the Inhibition ratio (Tie2(R849W)(h)) was 86%. The Inhibition ratio (CDK5/p25(h)) was 16%, the Inhibition ratio [1] was 45% and the Inhibition ratio (MELK(h)) was 36%. The Inhibition ratio (Mnk2(h)) was 38%, the Inhibition ratio (Rsk4(h)) was −15% and the Inhibition ratio (CK1γ2(h)) was 9%. The Inhibition ratio (CDKL1(h)) was 50%, the Inhibition ratio (RIPK1(h)) was 100% and the Inhibition ratio (STK25(h)) was 2%. For the same compound, the Inhibition ratio (IRR(h)) was 50%, the Inhibition ratio (MEKK3(h)) was 2% and the Inhibition ratio (STK32C(h)) was 3%. The Inhibition ratio (MAP4K5(h)) was 64%.
